Experimental data: patent US20230095558A1, “IMMUNE CHECKPOINT TIM3-TARGETING BINDING PEPTIDE AND APPLICATION THEREOF” (Sparx Biotech (Jiangsu) Co., Ltd., priority 2020, published 2023)
No end group written: not given here.

Assays:
TIM3 protein = biological target: T1, TIM3 protein (Homo sapiens, UniProt Q8TDQ0); assay: SPR affinity of TIM3-targeting binding peptides to immobilized TIM3 protein; settings: TIM3 sensor chip, dissociation rate
T1 sequence (Q8TDQ0 22-301): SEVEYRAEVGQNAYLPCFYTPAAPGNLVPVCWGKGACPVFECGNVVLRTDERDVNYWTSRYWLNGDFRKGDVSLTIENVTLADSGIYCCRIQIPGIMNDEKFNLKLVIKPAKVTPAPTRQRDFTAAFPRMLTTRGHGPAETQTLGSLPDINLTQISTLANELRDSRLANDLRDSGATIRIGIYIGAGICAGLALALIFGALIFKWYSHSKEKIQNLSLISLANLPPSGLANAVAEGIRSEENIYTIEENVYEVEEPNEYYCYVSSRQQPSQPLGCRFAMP
Experimental: The binding properties of the TIM3-targeting binding peptides to TIM3 and their competition experiments with Galectin-9-bound TIM3 were identified by flow cytometry and surface plasmon resonance (SPROpenSPR, Nicoya, V3.01) detection.
SPR assay: Affinity identification between the TIM3-targeting binding peptides and TIM3 was performed by immobilizing TIM3 protein (50 μg/mL) on the surface of a nanogold sensor chip upon activation of EDC/NHS. The TIM3-targeting binding peptides were diluted with buffer (PBS, pH 7.4) to concentrations of […], 19.5 μM, 39 μM and 78 μM, respectively. The competitive binding ability of the TIM3-targeting binding peptides to the ligand was identified by immobilizing the Galectin-9 protein (25 μg/mL) on a sensor chip at a detection concentration of 100 μg/mL for the TIM3-targeting binding peptides, and at a concentration of the mixed sample of 100 μg/mL TIM3-targeting binding peptides and 10 μg/mL TIM3 protein. The detection sample was loaded at a flow rate of 20 μL/min for about 7 min according to the instrument instructions. The KD, ka and kd values were calculated and analyzed by Trace Drawer Evaluation (version 2.0) software.

CD4+ T cells = assay: Mixed lymphocyte reaction (DCs + CD4+ T cells), cytokine ELISA; type: cell-based, human; settings: MLR; for expression level of INF-γ: ELISA on day 5, vs control groups (P<0.01 or P<0.05)
Experimental: Identification of the functional activity of TIM3-targeting binding peptides was performed by evaluating the levels of activation and proliferation of T cells, i.e., the levels of expression of IL-2 and IFN-γ cytokines. First, Dendritic Cells (DCs) and CD4+T cells were obtained by magnetic bead sorting, and then the levels of IFN-γ cytokines and IL-2 were detected by a Mixed Lymphocyte Reaction (MLR) experiment simulating close to human physiological environment and an ELISA experiment, to identify biological activities of the TIM3-targeting binding peptides.
Culture of Dendritic cells (DCs): Isolated dendritic cells (DCs) were cultured in Mo-DC differentiation medium (10^7 cells/10 mL medium), and 10 mL of the same medium was added to the cells after 3 days (the cells were cultured in the differentiation medium at 37° C., 5% CO2 and >95% humidity for 6 days). On day 7, DCs were resuspended in Mo-DC mature medium and cultured for further 3 days by addition of the Mo-DC differentiation medium. Matured DC and newly isolated T cells (DC and T cells from different donors) were mixed for mixed lymphocyte reaction. Approximately 1×10^4 DCs and 1×10^5 T cells per well were mixed and cultured in 200 μL RPMI-1640 medium with 10% FBS. To evaluate the activity (gradient action), competitive inhibition (P26 and ligand), synergistic effect (TIM3-targeting binding peptides and the PD-1 inhibitor Opdivo) of the binding peptides TIM3-targeting binding peptides, the corresponding concentrations of peptides, Opdivo, Galectin-9 were added to the corresponding wells to interact with the cells. The expression levels of IFN-γ (or IL-2) secreted in the cell supernatant were measured on day 5.
T cell activity were tested according to the instructions of the ELISA kit. Briefly, the capture antibody dilutions were coated on a 96-well plate overnight (24 hours) at room temperature at a concentration of 2 μg/mL in a volume of 100 μL. On the following day, the capture antibody solution was aspirated and the wells were washed three times with 300 μL wash buffer PBST (0.05% Tween®20, pH 7.2-7.4). Thereafter, the test wells were blocked with 300 μL of 1% BSA-PBS for 1 hour. After blocking, the test wells were washed in the same manner as above and 100 μL of the test samples or standards (in 1% BSA-PBS) were pipetted into each well for 2 hours. Thereafter, the detection antibody (125 ng/mL, 100 μL) was added to each well according to the instructions of the human IFN-γ/IL-2 Duo Set ELISA kit, and incubated for 2 hours. Then, HRP (100 μL, incubated for 20 minutes) and TMB (100 μL) were added. At the end of each step, each well was washed in the same manner as described above. After completion of the color development, the test wells were terminated with 12.5% H2SO4 (50 μL/well) and read on an ELISA plate reader at a wavelength of 450/570 nm. All experimental test wells were repeated.

MC38-hPDL1 tumor = assay: In vivo anti-tumor growth in MC38-hPDL1 tumor-bearing mice humanized with TIM3; design: species or system C57BL/6J mice transduced with the human TIM3 gene; settings: 21 days, intraperitoneal, P26 5 mg/kg QD, ATE 10 mg/kg twice a week
Text: In this example, the anti-tumor growth effect of the TIM3-targeting binding peptides was farther examined in mice. The tumor inhibitory effect of the TIM3-targeting binding peptides on C57BL/6J MC38-hPDL1 tumor-bearing mice humanized with TIM3 was detected by the following experimental steps: 1. Inoculation of mice: […]-hPDL1 tumor cells (1×10^6 cells/mouse) were inoculated subcutaneously into C57BL/6J mice transduced with the human TIM3 gene. 2. Grouping: Mice were randomly divided into 4 groups with 7 mice per group when tumors reached 80 100 mm^3. 3. Administration: PBS (negative control), PD-L1 humanized antibody (positive control), polypeptides alone (experimental group) and polypeptides plus PD-L1 humanized antibody (synergistic effect group) were administered intraperitoneally to mice in each group, respectively. The amount of antibody used was 10 mg/kg twice a week. The amount of polypeptide was 5 mg/kg once daily. Tumor size and body weight of the mice were measured every 3 days. 4. Post-administration treatment: mice were euthanized 3 weeks after administration. Tumors were isolated, weighed, and photographed.

koff (TIM3 protein)	Sequence	expression level of INF-γ (CD4+ T cells)	tumor volumes (MC38-hPDL1 tumor; compared to control group)	growth of the tumor (tumor weight) (MC38-hPDL1 tumor; vs control group P<0.05)	reversal of Galectin-9-mediated inhibition of CD4+ T cell activation (IFN-γ and IL-2 expression levels) (CD4+ T cells; P26 100 μg/mL, Galectin-9 5 μg/mL, ELISA)
1.32×10^−2 S^−1	SQEVFAWTFSPRWTTAPKAL [K3]	significantly increased			
1.60×10^−2 S^−1	WQQNNPHLWDVFLGVPRTTE [K5]	significantly increased			
	QNPPLENTVYQEPFWQHAVD (A TIM3-targeting binding peptide) [K7, 20-peptide targeting TIM3]	significantly increased			
	TFLNSVPTYSYW (A TIM3-targeting binding peptide) [P1310, 12-peptide targeting TIM3]	significantly increased			
	GLIPLTTMHIGK (A TIM3-targeting binding peptide) [P26, 12-peptide targeting TIM3]	significantly increased	tended to decrease	inhibited	reversed
1.69×10^−5 S^−1	GSWNTFRAQPTI [P24, GSWNTFRAQPTI]				
1.03×10^−2 S^−1	FTYAHPVSHRWESSVHVDQW [K2]	significantly increased			
4.28×10^−3 S^−1	HDAFPRPHLFRN [P1301, HDAFPRPHLFRN]	significantly increased			
7.47×10^−3 S^−1	ADFRVMADMSMY [P29, ADFRVMADMSMY]	significantly increased			
2.30×10^−2 S^−1	SPFYYSGHQWVPHPRQAASY [K10]	significantly increased			
	HYEADPYEAWYDAWDDIHTY (A TIM3-targeting binding peptide) [K1, 20-peptide targeting TIM3]	significantly increased			
7.89×10^−3 S^−1	SHDTRSPFTWGR [P1307, SHDTRSPFTWGR]				
3.08×10^−3 S^−1	ALWPSSSMSSTI [P1303, ALWPSSSMSSTI]	significantly increased			
